Broadly, the MIC is the least concentration at which growth counts as inhibited. By IC50 is commonly meant the concentration at which inhibition is half-maximal.

Data set [1] concerns Mycobacterium tuberculosis. Briefly: Antitubercular activity against Mycobacterium tuberculosis H37Rv incubated for 7 days by alamar blue assay. The format is functional. The conditions noted are these: 168 h, time 7 day. (In general: The colour change of resazurin is a common sign of viable cells or microbes.)
Data set [2] in a line: Cytotoxicity against african green monkey Vero cells incubated for 48 hrs by CCK8 assay. The format is toxicity, cell-based, Chlorocebus sabaeus.
Data set [3] can be described thus: Selectivity index, ratio of IC50 for african green monkey Vero cells to IC50 for Mycobacterium tuberculosis H37Rv. The data set is classed as toxicity. To be noted: read-out: Ratio IC50.

≈ marks a conversion by molar mass, not a printed value.

Molecule `CCCOc1ccc(C2CC(=O)Nc3nc(SCCC)[nH]c(=O)c32)cc1` (stereo unspecified) came in with a minimal inhibitory concentration (MIC) in data set [1] of 1 mg/L (≈ 2.68 µM). Also, in data set [2], the IC50 at 48 h stood at 12.1 mg/L (≈ 32.3 µM). Further, the selectivity ratio in data set [3] was 12.1.
Turning to `CCCSc1nc2c(c(=O)[nH]1)C(c1ccc(OCC(C)C)cc1)CC(=O)N2` (stereo unspecified), the MIC in data set [1] is more than 10 mg/L. Also, the midpoint of inhibition in data set [2], the IC50 at 48 h, lay at 41.5 mg/L (≈ 107 µM).
In turn, `CCCSc1nc2c(c(=O)n1C)C(c1ccccc1)CC(=O)N2C` (stereo unspecified) gave an MIC in data set [1] of more than 10 mg/L.
`CCCS(=O)(=O)c1nc2c(c(=O)[nH]1)[C@H](c1ccc(OC)cc1[N+](=O)[O-])CC(=O)N2` returned a minimal inhibitory concentration (MIC) in data set [1] of more than 32 mg/L.
In data set [1], `CCCOc1ccc(C2CC(=O)Nc3nc(SC)[nH]c(=O)c32)cc1` (stereo unspecified) returned a minimal inhibitory concentration (MIC) of more than 10 mg/L. This molecule also gave an IC50 at 48 h in data set [2] of 53.5 mg/L (≈ 155 µM). For the same molecule, the selectivity ratio in data set [3] is less than 5.4.
Taken in the same sequence, the figures for `COc1ccc(C2CC(=O)Nc3nc(SC)[nH]c(=O)c32)cc1` (stereo unspecified) were 9.24 mg/L (≈ 29.1 µM), 30.7 mg/L (≈ 96.6 µM) and 3.32.
As for `CCC[S+]([O-])c1nc2c(c(=O)[nH]1)[C@H](c1ccc(OC)cc1[N+](=O)[O-])CC(=O)N2` (stereo partly specified), the MIC in data set [1] is more than 32 mg/L.
Take `CCCSc1nc2c(c(=O)[nH]1)C(c1ccccc1)CC(=O)N2C` (stereo unspecified): the MIC in data set [1] is more than 10 mg/L. This molecule also came in with an IC50 at 48 h in data set [2] of 52.5 mg/L (≈ 159 µM). In addition, the selectivity ratio in data set [3] was less than 5.2.
Taken in the same sequence, the figures for `C=CCSc1nc2c(c(=O)[nH]1)C(c1ccc(OC)cc1[N+](=O)[O-])CC(=O)N2` (stereo unspecified) were 0.5 mg/L (≈ 1.29 µM), more than 100 mg/L and more than 200.
Regarding `CCCSc1nc2c(c(=O)[nH]1)C(c1ccc(OC)c([N+](=O)[O-])c1)CC(=O)N2` (stereo unspecified), in data set [1], the MIC was found to be 4.84 mg/L (≈ 12.4 µM). The IC50 at 48 h in data set [2] was 67.5 mg/L (≈ 173 µM). Also, the selectivity ratio in data set [3] came to 14.
`CCCSc1nc2c(c(=O)[nH]1)C(c1ccccc1)CC(=O)N2` (stereo unspecified) showed an MIC in data set [1] of 9.66 mg/L (≈ 30.6 µM). The molecule also showed an IC50 at 48 h in data set [2] of 31.9 mg/L (≈ 101 µM). The selectivity ratio in data set [3] is 3.3.
`CCC[S+]([O-])c1nc2c(c(=O)[nH]1)[C@@H](c1ccc(OC)cc1)CC(=O)N2` (stereo partly specified) came in with a minimal inhibitory concentration (MIC) in data set [1] of more than 32 mg/L.
For `CCCS(=O)(=O)c1nc2c(c(=O)[nH]1)[C@H](c1ccc(OC)cc1)CC(=O)N2`, the MIC in data set [1] was more than 32 mg/L.
In data set [1], `CCCSc1nc2c(c(=O)[nH]1)C(c1ccc(OC(C)C)cc1)CC(=O)N2` (stereo unspecified) showed an MIC of 2.12 mg/L (≈ 5.68 µM). The molecule further returned a half-maximal inhibitory concentration (IC50) at 48 h in data set [2] of 24.9 mg/L (≈ 66.7 µM). For the same molecule, in data set [3], the selectivity ratio stood at 11.7.
`CCCSc1nc2c(c(=O)[nH]1)C(c1cc(OC)c(OC)c(OC)c1)CC(=O)N2` (stereo unspecified) registered an MIC in data set [1] of more than 10 mg/L. Further, in data set [2], the IC50 at 48 h is more than 100 mg/L.
As for `CCCCCCCOc1ccc(C2CC(=O)Nc3nc(SCCC)[nH]c(=O)c32)cc1` (stereo unspecified), in data set [1], the minimum inhibitory concentration (MIC) was more than 10 mg/L. The molecule also gave a half-maximal inhibitory concentration (IC50) at 48 h in data set [2] of 36.6 mg/L (≈ 85.1 µM).
In turn, `CCCOc1ccc(C2CC(=O)Nc3nc(SCCC)[nH]c(=O)c32)c(O)c1` (stereo unspecified) came in with an MIC in data set [1] of 1.23 mg/L (≈ 3.16 µM). In data set [2], this molecule registered a half-maximal inhibitory concentration (IC50) at 48 h of 43.9 mg/L (≈ 113 µM). In addition, the selectivity ratio in data set [3] amounted to 35.6.
Molecule `CCCSc1nc2c(c(=O)[nH]1)C(c1ccc(OC)c(O)c1)CC(=O)N2` (stereo unspecified) yielded an MIC in data set [1] of 1.22 mg/L (≈ 3.38 µM). This molecule also gave a concentration for half-maximal inhibition (IC50) at 48 h in data set [2] of more than 100 mg/L. Further, the selectivity ratio in data set [3] was more than 82.1.
In data set [1], `CCCS(=O)(=O)c1nc2c(c(=O)[nH]1)[C@@H](c1ccc(OC)cc1[N+](=O)[O-])CC(=O)N2` displayed an MIC of more than 32 mg/L.
`CCCSc1nc2c(c(=O)[nH]1)C(c1ccc(OC)c(O)c1O)CC(=O)N2` (stereo unspecified) had an MIC in data set [1] of more than 10 mg/L. The same molecule displayed an IC50 at 48 h in data set [2] of 27.5 mg/L (≈ 72.9 µM).
In turn, `C=CCSc1nc2c(c(=O)[nH]1)C(c1ccc(OC)c(O)c1)CC(=O)N2` (stereo unspecified) showed an MIC in data set [1] of 2.19 mg/L (≈ 6.09 µM). Moreover, the IC50 at 48 h in data set [2] was more than 100 mg/L. The selectivity ratio in data set [3] was more than 45.7.
Regarding `COc1ccc(C2CC(=O)Nc3nc(SC(C)C)[nH]c(=O)c32)cc1` (stereo unspecified), it took 2.27 mg/L (≈ 6.57 µM) to inhibit growth in data set [1] (MIC). This molecule had a half-maximal inhibitory concentration (IC50) at 48 h in data set [2] of more than 100 mg/L. For the same molecule, the selectivity ratio in data set [3] was more than 44.1.
In data set [1], `COc1ccc(C2CC(=O)Nc3nc(SC)[nH]c(=O)c32)cc1O` (stereo unspecified) returned an MIC of more than 10 mg/L. In data set [2], this molecule returned a half-inhibitory concentration (IC50) at 48 h of more than 100 mg/L.
`CCCSc1nc2c(c(=O)[nH]1)C(c1ccc(OC)c(OC)c1)CC(=O)N2` (stereo unspecified) returned a minimum inhibitory concentration (MIC) in data set [1] of more than 10 mg/L. Besides, the midpoint of inhibition in data set [2], the IC50 at 48 h, lay at 20.4 mg/L (≈ 54.5 µM). Moreover, in data set [3], the selectivity ratio was less than 2.
For the molecule `C=CCSc1nc2c(c(=O)[nH]1)C(c1ccc(OC)cc1)CC(=O)N2` (stereo unspecified), it took 0.5 mg/L (≈ 1.46 µM) to inhibit growth in data set [1] (MIC). In data set [2], the IC50 at 48 h came to 41.1 mg/L (≈ 120 µM). In addition, the selectivity ratio in data set [3] worked out at 82.2.
`CCCCSc1nc2c(c(=O)[nH]1)C(c1ccc(OC)cc1)CC(=O)N2` (stereo unspecified): in data set [1], the MIC is 0.5 mg/L (≈ 1.39 µM). This molecule registered a half-inhibitory concentration (IC50) at 48 h in data set [2] of 46.3 mg/L (≈ 129 µM). Moreover, in data set [3], the selectivity ratio came to 93.1.
For the molecule `CCCSc1nc2c(c(=O)[nH]1)C(c1ccc(OC)cc1N)CC(=O)N2` (stereo unspecified), in data set [1], the MIC is more than 10 mg/L. Further, in data set [2], the IC50 at 48 h is more than 100 mg/L.
`CCCSc1nc2c(c(=O)[nH]1)C(c1ccc(OCC)cc1)CC(=O)N2` (stereo unspecified): 0.35 mg/L (≈ 0.974 µM) was the least that counted as inhibitory in data set [1] (MIC). Further, in data set [2], the IC50 at 48 h stood at 60.1 mg/L (≈ 167 µM). Moreover, the selectivity ratio in data set [3] turned out to be 174.
In data set [1], `CCC[S+]([O-])c1nc2c(c(=O)[nH]1)[C@@H](c1ccc(OC)cc1[N+](=O)[O-])CC(=O)N2` (stereo partly specified) yielded an MIC of more than 32 mg/L.
Take `CCCCSc1nc2c(c(=O)[nH]1)C(c1ccc(OCCC)cc1)CC(=O)N2` (stereo unspecified): in data set [1], the minimum inhibitory concentration (MIC) was more than 10 mg/L. Further, half-maximal inhibition in data set [2] (IC50 at 48 h) required 57 mg/L (≈ 147 µM).
Regarding `CCCCSc1nc2c(c(=O)[nH]1)C(c1ccc(OC)c(O)c1)CC(=O)N2` (stereo unspecified), in data set [1], the minimal inhibitory concentration (MIC) was found to be 3.19 mg/L (≈ 8.5 µM). Also, the half-maximal inhibitory concentration (IC50) at 48 h in data set [2] is 40.1 mg/L (≈ 107 µM). The selectivity ratio in data set [3] was 12.6.
For `CCCOc1ccc(C2CC(=O)Nc3nc(SCCC)[nH]c(=O)c32)cc1O` (stereo unspecified), inhibition of growth in data set [1] (MIC) required 4.73 mg/L (≈ 12.1 µM). In data set [2], this molecule displayed an IC50 at 48 h of 99.3 mg/L (≈ 255 µM). For the same molecule, the selectivity ratio in data set [3] turned out to be 21.
As for `CCCSc1nc2c(c(=O)[nH]1)C(c1ccc(OC)cc1O)CC(=O)N2` (stereo unspecified), the minimal inhibitory concentration (MIC) in data set [1] was determined as 0.95 mg/L (≈ 2.63 µM). In addition, the IC50 at 48 h in data set [2] is 54.1 mg/L (≈ 150 µM). Also, in data set [3], the selectivity ratio was 56.9.
Taken in the same sequence, the figures for `NNC(=O)c1ccncc1` [ISONIAZID] were 0.05 mg/L (≈ 0.365 µM), more than 100 mg/L and more than 2000.
On to `CCCSc1nc2c(c(=O)[nH]1)C(c1ccc(OC)c(N)c1)CC(=O)N2` (stereo unspecified), for which inhibition of growth in data set [1] (MIC) required 2 mg/L (≈ 5.55 µM). The concentration for half-maximal inhibition (IC50) at 48 h in data set [2] is more than 100 mg/L. The selectivity ratio in data set [3] is more than 50.
Molecule `C=CCSc1nc2c(c(=O)[nH]1)C(c1ccc(OCC)cc1)CC(=O)N2` (stereo unspecified) displayed a minimum inhibitory concentration (MIC) in data set [1] of 1 mg/L (≈ 2.8 µM). This molecule also yielded an IC50 at 48 h in data set [2] of more than 100 mg/L. The selectivity ratio in data set [3] was more than 500.
The molecule `CCCSc1nc2c(c(=O)[nH]1)C(c1ccc(OC)cc1)CC(=O)N2C` (stereo unspecified) returned an MIC in data set [1] of more than 10 mg/L. Also, in data set [2], the IC50 at 48 h stood at 53.6 mg/L (≈ 149 µM).
The corresponding values for `CCCSc1nc2c(c(=O)n1C)C(c1ccc(OC)cc1)CC(=O)N2C` (stereo unspecified) are more than 10 mg/L and 46.5 mg/L (≈ 124 µM).
`C=CCSc1nc2c(c(=O)[nH]1)C(c1ccc(OCCC)cc1)CC(=O)N2` (stereo unspecified) came in with an MIC in data set [1] of 1.98 mg/L (≈ 5.33 µM). This molecule yielded an IC50 at 48 h in data set [2] of 4.57 mg/L (≈ 12.3 µM). In data set [3], the selectivity ratio was 2.31.
On to `COc1ccc(C2CC(=O)Nc3nc(SC)[nH]c(=O)c32)c(O)c1` (stereo unspecified), for which, in data set [1], the MIC was more than 10 mg/L. The half-inhibitory concentration (IC50) at 48 h in data set [2] was more than 100 mg/L.
Regarding `CCCCSc1nc2c(c(=O)[nH]1)C(c1ccc(OC)cc1O)CC(=O)N2` (stereo unspecified), the MIC in data set [1] came out at 4.65 mg/L (≈ 12.4 µM). In data set [2], this molecule came in with a concentration for half-maximal inhibition (IC50) at 48 h of 41.2 mg/L (≈ 110 µM). Further, in data set [3], the selectivity ratio was 8.87.
For `CCC[S+]([O-])c1nc2c(c(=O)[nH]1)[C@H](c1ccc(OC)cc1)CC(=O)N2` (stereo partly specified), in data set [1], the minimum inhibitory concentration (MIC) was more than 32 mg/L.
As to `CCCS(=O)(=O)c1nc2c(c(=O)[nH]1)[C@@H](c1ccc(OC)cc1)CC(=O)N2`, the MIC in data set [1] is more than 32 mg/L.

These data come from ChEMBL document CHEMBL5584339, “Design, Synthesis, and Evaluation of the Antitubercular Activity of 5-Phenyl Substituted-5, 6-dihydropyrido[2, 3-d]pyrimidine-4, 7(3H, 8H)-dione Compounds” (J Med Chem, 2024).
